Here are results for 2 compounds from patent US8389532B2, “7-[2-[4-(6-fluoro-3-methyl-1,2-benzisoxazol-5-yl)-1-piperazinyl]ethyl]-2-(1-propynyl)-7H-pyrazolo-[4,3-E]-[1,2,4]-triazolo-[1,5-C]-pyrimidin-5-amine” (Merck Sharp & Dohme Corp., priority 2005, dated 2013).

In test [1] the target is T1, Human A2a Adenosine Receptor (Homo sapiens, UniProt P29274).
T1 construct: purchased Perkin Elmer Life Sciences RBHA2AM
The experiment in a line: Human adenosine A2a receptor competition binding assay. The note with it: [3H]-SCH 58261 0.5 nM, human A2a membranes. How it is done:
(§1) Human Adenosine A2a and A1 Receptor Competition Binding Assay Protocol
A2a: Human A2a Adenosine Receptor membranes, Catalog #RBHA2AM, Perkin Elmer Life Sciences, Shelton Conn. Dilute to 17 μg/100 μl in membrane dilution buffer (see below).
(§2) Membrane dilution buffer: Dulbecco's Phosphate Buffered Saline (Gibco/BRL)+10 mM MgCl2.
(§3) Compound Dilution Buffer: Dulbecco's Phosphate Buffered Saline (Gibco/BRL)+10 mM MgCl2 supplemented with 1.6 mg/ml methyl cellulose and 16% DMSO. Prepared fresh daily.
A2a: [3H]-SCH 58261, custom synthesis, AmershamPharmacia Biotech, Piscataway, N.J. Stock is prepared at 1 nM in membrane dilution buffer. Final assay concentration is 0.5 nM.
A2a: To determine non-specific binding, add 100 nM CGS 15923 (RBI, Natick, Mass.). Working stock is prepared at 400 nM in compound dilution buffer.
(§4) Prepare 1 mM stock solutions of compounds in 100% DMSO. Dilute in compound dilution buffer. Test at 10 concentrations ranging from 3 μM to 30 pM. Prepare working solutions at 4× final concentration in compound dilution buffer.
Perform assays in deep well 96 well plates. Total assay volume is 200 μl. Add 50 μl compound dilution buffer (total ligand binding) or 50 μl CGS 15923 working solution (A2a non-specific binding) or 50 μl NECA working solution (A1 non-specific binding) or 50 μl of drug working solution. Add 50 μl ligand stock ([3H]-SCH 58261 for A2a, [3H]-DPCPX for A1). […]

For another test, the target named is T2, A1 receptor (Homo sapiens, UniProt P30542).
T2 sequence (P30542 1-326): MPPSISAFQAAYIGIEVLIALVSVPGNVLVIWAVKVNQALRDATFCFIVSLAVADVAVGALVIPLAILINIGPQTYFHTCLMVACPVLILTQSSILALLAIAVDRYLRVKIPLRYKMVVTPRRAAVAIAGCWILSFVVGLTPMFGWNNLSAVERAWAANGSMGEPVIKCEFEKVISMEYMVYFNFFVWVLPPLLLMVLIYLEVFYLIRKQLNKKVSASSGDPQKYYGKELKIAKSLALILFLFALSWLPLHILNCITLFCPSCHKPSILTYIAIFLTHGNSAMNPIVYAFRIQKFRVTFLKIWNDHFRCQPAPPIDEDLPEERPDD
As to the kind of experiment: Human adenosine A1 receptor competition binding assay (selectivity vs A2a). The conditions noted are these: A1 ligand [3H]-DPCPX. As for the experimental part: as §1, §2, §3
A1: [3H]-DPCPX, AmershamPharmacia Biotech, Piscataway, N.J. Stock is prepared at 2 nM in membrane dilution buffer. Final assay concentration is 1 nM.
A1: To determine non-specific binding, add 100 μM NECA (RBI, Natick, Mass.). Working stock is prepared at 400 μM in compound dilution buffer.
as §4
Perform assays in deep well 96 well plates. Total assay volume is 200 μl. Add 50 μl compound dilution buffer (total ligand binding) or 50 μl CGS 15923 working solution (A2a non-specific binding) or 50 μl NECA working solution (A1 non-specific binding) or 50 μl of drug working solution. Add 50 μl ligand stock ([3H]-SCH 58261 for A2a, [3H]-DPCPX for A1). Add 100 μl of diluted membranes containing the appropriate receptor. Mix. Incubate at room temperature for 90 minutes. […]
Selectivity is determined by dividing Ki for A1 receptor by Ki for A2a receptor. […]

The test system of a further test is 6-OHDA lesioned rats. As to the kind of experiment: 6-OHDA lesion of the middle forebrain bundle in rats (contralateral turning with subthreshold L-DOPA). The conditions noted are these: combined with sub-threshold L-DOPA. The format is in vivo, rat. How it is done: 6-OHDA Lesion of the Middle Forebrain Bundle in Rats
Adult male Sprague-Dowley rats (Charles River, Calco, Como, Italy), weighing 275-300 g, are used in all experiments. The rats are housed in groups of 4 per cage, with free access to food and water, under controlled temperature and 12 hour light/dark cycle. The day before the surgery the rats are fasted over night with water ad libitum.
Unilateral 6-hydroxydopamine (6-OHDA) lesion of the middle forebrain bundle is performed according to the method described by Ungerstedt et al. (Brain Research, 1971, 6-OHDA and Cathecolamine Neurons, North Holland, Amsterdam, 101-127), with minor changes. Briefly, the animals are anaesthetized with chloral hydrate (400 mg/kg, ip) and treated with desipramine (10 mpk, ip) 30 min prior to 6-OHDA injection in order to block the uptake of the toxin by the noradrenergic terminals. Then, the animals are placed in a stereotaxic frame. The skin over the skull is reflected and the stereotaxic coordinates (−2.2 posterior from bregma (AP), +1.5 lateral from bregma (ML), 7.8 ventral from dura (DV) are taken, according to the atlas of Pellegrino et al (Pellegrino L. J., Pellegrino A. S. and Cushman A. J., A Stereotaxic Atlas of the Rat Brain, 1979, New York: Plenum Press). A burr hole is then placed in the skull over the lesion site and a needle, attached to a Hamilton syringe, is lowered into the left MFB. Then 8 μg 6-OHDA-HCl is dissolved in 4 μl of saline with 0.05% ascorbic acid as antioxidant, and infused at the constant flow rate of 1 μl/1 min using an infusion pump. The needle is withdrawn after additional 5 min and the surgical wound is closed and the animals left to recover for 2 weeks.
Any rat not showing at least 200 complete turns/2 h is not included in the study.
Selected rats receive the test drug 3 days after the priming test (maximal dopamine receptor supersensitivity).

Test [2] has as its system haloperidol-induced catalepsy. The experiment in a line: Haloperidol-induced catalepsy in the rat. The conditions noted are these: @ 4 h, rats. Type of test: in vivo. As for the experimental part: Haloperidol-Induced Catalepsy in the Rat Male Sprague-Dawley rats (Charles River, Calco, Italy) weighing 175-200 g are used. The cataleptic state is induced by the subcutaneous administration of the dopamine receptor antagonist haloperidol (1 mg/kg, sc), 90 min before testing the animals on the vertical grid test. For this test, the rats are placed on the wire mesh cover of a 25×43 plexiglass cage placed at an angle of about 70 degrees with the bench table. The rat is placed on the grid with all four legs abducted and extended (“frog posture”). The use of such an unnatural posture is essential for the specificity of this test for catalepsy. The time span from placement of the paws until the first complete removal of one paw (descent latency) is measured maximally for 120 sec. The selective A2A adenosine antagonists under evaluation are administered orally at doses ranging between 0.03 and 3 mg/kg, 1 and 4 h before scoring the animals.

In the next test the test system is haloperidol-induced EPS. The experiment in a line: EPS assay in haloperidol-sensitized Cebus apella monkeys. Type of test: in vivo. The conditions noted are these: 30 mg/kg co-administered with haloperidol 0.3 mg/kg. How it is done: A test compound is administered orally (p.o.) at a dose ranging from 0.3-30 mg/kg, in conjunction with haloperidol. The studies are conducted using a within-subjects design such that each monkey receives all treatments (vehicle and doses of test compound) in a crossover, balanced design. The reduction in the maximum EPS score, as well as the dose-dependent delay in the onset of EPS are determined. In the EPS assay, four haloperidol-sensitized monkeys were co-administered the compound of formula I (30 mg/kg) and haloperidol (0.3 mg/kg) in a banana. A scoring system to rate the severity of each symptom was employed over a 6 hour observation period.

The next test has as its target T3, A2a receptor (Rattus norvegicus, UniProt P30543).
T3 construct: The A2a receptor-rich striatal nucleus was dissected and homogenized in buffer solution; from tissue; host or cells: rat striatum homogenate
As to the kind of experiment: Ex vivo binding study to show duration of receptor occupancy (striatal homogenate, 3H-SCH 58261). Type of test: in vivo. The conditions noted are these: rats dosed 1 mg/kg; for receptor occupancy at 1 mg/kg: rat, 4 hours prior to sacrifice, read-out: decrease in 3H-SCH 58261 binding (receptor occupancy). As for the experimental part:
Ex Vivo Binding Study to Show Duration of Receptor Occupancy:
Rats were dosed with 1 mg/kg of the compound of formula I and the compound of formula II (generically disclosed in U.S. Pat. No. 6,897,217)
[drawing 4] for 4, 8, 12, and 16 hours prior to sacrifice and removal of brains. The A2a receptor-rich striatal nucleus was dissected and homogenized in buffer solution. Striatal homogenate was incubated with the A2a antagonist radioligand ^3H-SCH 58261 (see WO 96/38728) prior to separation of bound and free radioactivity by filtration. Bound radioligand on filters was dried, soaked with scintillation fluid, and counted. Homogenates from striata of vehicle-treated rats treated with the same experimental conditions defined the quantity of bound radioligand in the absence of test compound.

T3 sequence (P30543 whole entry): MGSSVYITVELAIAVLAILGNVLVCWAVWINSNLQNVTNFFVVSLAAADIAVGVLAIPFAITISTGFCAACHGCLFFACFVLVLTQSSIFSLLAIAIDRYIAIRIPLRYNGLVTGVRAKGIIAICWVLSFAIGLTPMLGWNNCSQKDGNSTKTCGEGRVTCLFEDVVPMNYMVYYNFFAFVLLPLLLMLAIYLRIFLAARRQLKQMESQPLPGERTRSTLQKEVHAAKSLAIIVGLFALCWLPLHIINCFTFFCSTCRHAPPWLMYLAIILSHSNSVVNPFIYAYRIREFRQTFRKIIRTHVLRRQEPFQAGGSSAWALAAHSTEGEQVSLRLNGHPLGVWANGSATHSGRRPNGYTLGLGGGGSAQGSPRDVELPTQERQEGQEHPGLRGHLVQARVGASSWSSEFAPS
T1 sequence (P29274 whole entry): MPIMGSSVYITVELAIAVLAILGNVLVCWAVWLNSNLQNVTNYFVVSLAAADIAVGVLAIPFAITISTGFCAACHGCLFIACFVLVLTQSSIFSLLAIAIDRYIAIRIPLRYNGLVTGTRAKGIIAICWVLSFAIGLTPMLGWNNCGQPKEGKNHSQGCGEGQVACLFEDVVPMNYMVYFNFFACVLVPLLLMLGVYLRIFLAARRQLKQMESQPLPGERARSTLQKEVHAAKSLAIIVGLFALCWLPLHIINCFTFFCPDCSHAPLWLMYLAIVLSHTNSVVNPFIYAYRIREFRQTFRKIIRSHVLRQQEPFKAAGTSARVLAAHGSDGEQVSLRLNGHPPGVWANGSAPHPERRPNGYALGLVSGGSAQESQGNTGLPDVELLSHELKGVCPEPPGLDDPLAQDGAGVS

As to `CC#Cc1nc2c3cnn(CCN4CCN(c5cc6c(C)noc6cc5F)CC4)c3nc(N)n2n1` [compound of formula I, 7-[2-[4-(6-fluoro-3-methyl-1,2-benzisoxazol-5-yl)-1-piperazinyl]ethyl]-2-(1-propynyl)-7H-pyrazolo-[4,3-e]-[1,2,4]-triazolo[1,5-c]pyrimidin-5-amine], in test [1], the inhibition constant Ki was found to be 0.43 nM. Besides, on A1 receptor, the “Selectivity (Ki for A1 receptor divided by Ki for A2a receptor)” value was “greater than 2500 fold”. The contralateral turning with 6-OHDA lesioned rats (0.1 mpk orally) is recorded as 218±142 rotations; in the test on 6-OHDA lesioned rats (0.3 mpk orally), 406±167 rotations; in the test on 6-OHDA lesioned rats (1 mpk orally), 360±178 rotations; in the test with 6-OHDA lesioned rats (3 mpk orally), 403±125 rotations. Also, the inhibition of catalepsy is 28% in test [2] (0.3 mpk orally), 47% in test [2] (1 mpk orally) and 53% in test [2] (3 mpk orally). In addition, the “effect on haloperidol-induced EPS, three of four subjects” value in the test with haloperidol-induced EPS (6 hr observation period) is on record as “completely blocked haloperidol-induced EPS”. Further, the “effect on haloperidol-induced EPS, fourth subject” value in the test on haloperidol-induced EPS (compared with haloperidol alone) is “delayed onset and reduced severity of EPS”. In addition, at A2a receptor, the receptor occupancy at 1 mg/kg is 42%. Further, the “displacement of radiolabel (3H-SCH 58261)” value at A2a receptor (12 hours) worked out at 40%.

Take `CC#Cc1nc2c3cnn(CCN4CCN(c5cc(-c6noc(C)n6)ccc5F)CC4)c3nc(N)n2n1` [formula II, reference compound]: the receptor occupancy at 1 mg/kg at A2a receptor is 47%. Also, the “3H-SCH 58261 radioligand binding (receptor occupancy)” value at A2a receptor (8 hours) is recorded as “restored to near vehicle-treated levels”.
